Source: article PMC5381946 (PLoS Pathogens, 2017)

Experiments:
[1] = target: APE1 exonuclease activity (Homo sapiens, UniProt P27695); assay: Exonuclease assay for APE1 C-terminal (DNA base excision) activity; assay type: biochemical
[2] = tested on: KSHV-induced angiogenesis; assay: Murine Matrigel plug assay of angiogenesis by KSHV-infected PDLSCs; assay type: in vivo; conditions: C10 in varying concentrations mixed with Matrigel; C57BL/6 mice; day 7
Description: Next, we employed a murine Matrigel plug assay to examine the ability of C10 to inhibit angiogenesis […]. KSHV-infected and mock-infected PDLSCs were mixed with Matrigel (without any cytokines) and implanted into C57BL/6 mice. In day 7, the matrigel plugs were stripped and examined for new blood vessel formation. […] The effect of C10 on KSHV-mediated angiogenesis in the […] assay was quantitated by measuring the hemoglobin content after homogenizing the Matrigel plugs using Drabkin’s reagent. The result, shown in Fig 6C (right panel), is consistent with that of in vitro Matrigel tubule formation assay.
Female C57BL/6 mice (4 to 6 weeks old) were obtained from the Sun Yat-sen University Animal Center. Five animals were used per treatment group. 5-10x10^6 cells in 100–200 μl medium were prepared and thoroughly mixed with 500 μl matrigels to total volume of 600–800 μl, and subsequently implanted to mice by inguinal injection. After even days, the mice were killed and matrigel plugs were removed. The Matrigel plugs were photographed and subsequently dissolved in 1 ml Dispase reagent for 16 h at 37°C. After removal of debris by centrifugation, hemoglobin was qualified using Drabkin's reagent (Sigma-Aldrich).

[3] = target: T1, APE1 (Homo sapiens, UniProt P27695); assay: Surface plasmon resonance (SPR) binding to APE1
T1 sequence (P27695 whole entry): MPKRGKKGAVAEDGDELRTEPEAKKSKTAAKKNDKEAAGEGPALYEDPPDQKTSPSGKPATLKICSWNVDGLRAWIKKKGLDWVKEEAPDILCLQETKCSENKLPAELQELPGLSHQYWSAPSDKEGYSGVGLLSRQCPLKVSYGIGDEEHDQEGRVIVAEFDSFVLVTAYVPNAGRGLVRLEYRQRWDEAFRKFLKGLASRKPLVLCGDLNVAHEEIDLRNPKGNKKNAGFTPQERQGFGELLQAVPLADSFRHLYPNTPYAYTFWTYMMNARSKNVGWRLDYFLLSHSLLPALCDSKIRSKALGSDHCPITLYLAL

[4] = tested on: KSHV
[5] = tested on: KSHV; assay: KSHV virion production (encapsidated viral DNA in media) from TPA-induced BCBL-1 cells; assay type: cell-based, Kaposi's sarcoma-associated herpesvirus (KSHV); conditions: for EC50: Human gammaherpesvirus 8, BCBL1, 120 h, TPA-induced BCBL-1, encapsidated viral DNA in media 5 days post-induction, read-out: EC50 for blocking KSHV virion production
[6] = target: T2, APE1 redox activity (Homo sapiens, UniProt P27695); assay: EMSA-based assay for APE1 redox activity (APE1-dependent AP-1 DNA binding); assay type: biochemical; conditions: reduced APE1 0.1 μM, purified c-jun/c-fos
T2 construct: 6xHis (N); made in house; host or cells: E. coli (Roseta)
T2 sequence (P27695 whole entry): as above

[7] = tested on: KSHV-infected PDLSCs; assay: Matrigel-transwell cell invasion assay with KSHV-infected PDLSCs; conditions: C10 in different concentrations
[8] = target: T1, APE1; assay: Differential scanning fluorimetry (DSF) thermal shift of APE1; conditions: APE1 2 μM, incubated with compound at 37°C for 30 min; melting curves shifted to the left
[9] = Cytotoxicity (MTT assay) in iSLK.219 cells; assay type: cell-based; conditions: human
Description: The medium was replaced with DMSO.
(PDF) Click here for additional data file.

[10] = tested on: KSHV; assay: KSHV lytic DNA replication (intracellular viral genomic DNA, real-time PCR) in TPA-induced BCBL-1 cells; assay type: cell-based, Kaposi's sarcoma-associated herpesvirus (KSHV); conditions: Human gammaherpesvirus 8, BCBL1, compound added 3 h post-induction, intracellular viral genomic DNA at 48 h post-induction
[11] = tested on: KSHV-infected HUVECs; assay: ELISA of VEGF-A, IL-6 and IL-8 secreted by KSHV-infected HUVECs; assay type: cell-based, human; conditions: S3 Fig
Description: (§1) KS has been considered as a cytokine disease as KS lesions over-produce cytokines, especially angiogenic growth factors, that contribute to the major pathogenic features of KS [53, 54]. In the early stage, KS is not a real sarcoma but an angiohyperplastic-inflammatory lesion mediated by inflammatory cytokines and angiogenic factors. The finding that the paracrine-regulated angiogenesis requires the redox function of APE1 (Fig 2) prompted us to further investigate if blockade of APE1 redox function by C10 could reduce cytokine and angiogenic factor production. […] Then the culture media were collected and examined for the expression of VEGF-A and IL-6 by ELISA.
(§2) Levels of VEGF-A, IL-6 and IL-8 in cell culture supernatants were determined using specific ELISA kits for human VEGF-A (eBioscience), IL-6 (BD) and IL-8 (Xin Bosheng, China) according to the manufacturer instructions.
Supplementary file ppat.1006289.s003.pdf: S3 Fig Effects of C10 on KSHV-mediated secretion of VEGF-A, IL-6 and IL-8 from HUVECs. KSHV-infected HUVECs were treated with either C10 for 24 hours. After changing media to remove C10 from the media, cells were continued to culture for 24 hours. Then the culture media were collected and examined for the expression of VEGF-A, IL-6 and IL-8 by ELISA. (PDF) Click here for additional data file.

[12] = tested on: RTA promoter; assay type: cell-based, human
[13] = tested on: KSHV; assay: KSHV lytic DNA replication in doxycycline-induced iSLK.219 cells; assay type: cell-based, Kaposi's sarcoma-associated herpesvirus (KSHV); conditions: Human gammaherpesvirus 8, doxycycline 3 h, then C10, read-out: IC50 for viral lytic DNA replication
[14] = tested on: KSHV-infected PDLSCs; assay: In vitro Matrigel tube formation assay with KSHV-infected PDLSCs; conditions: for paracrine-mediated angiogenesis (tubulogenesis of PDLSCs in conditioned media): conditioned media from KSHV-infected PDLSCs treated 24 hours with compound
[15] = tested on: KSHV; assay: microbe, parasite or virus in culture; conditions: Human gammaherpesvirus 8, 3 h, read-out: EC50 for virion production
[16] = tested on: AP-1 promoter; assay: AP-1 promoter-luciferase reporter assay in 293T cells; assay type: cell-based, human; conditions: TPA induction, varying C10 concentrations
[17] = Cytotoxicity by Trypan blue exclusion in BCBL-1 cells; conditions: human
[18] = tested on: KSHV-infected PDLSCs; assay: ELISA of angiogenic growth factors secreted by KSHV-infected PDLSCs; assay type: cell-based, human; conditions: KSHV-PDLSCs treated 24 hours, media changed, collected after a further 24 hours
Description: as §1, §2

[19] = tested on: pancreatic cancer; parameters: method as in PMID 21700832; conditions: cell lines and pancreatic cancer xenograft model in mice; cited from earlier work
[20] = parameters: method as in PMID 18627350; conditions: cited from earlier work
[21] = in vitro; conditions: human
[22] = tested on: retinal angiogenesis; parameters: method as in PMID 20937296, PMID 24624338; conditions: in vitro and in an animal model; cited from earlier work

Chain of APE1 exonuclease activity (P27695 whole entry): as above

O=c1c(O)c(-c2cc(O)c(O)c(O)c2)oc2cc(O)cc(O)c12 [Myrecetin, reference compound]
effect on APE1 exonuclease activity ([1]; positive control, different concentrations): dose-dependent inhibitory response

Cc1ccc(/C=C/C(=O)CC(=O)/C=C/c2ccc(C)o2)o1 [C10, (1E,6E)-1,7-bis(5-methylfuran-2-yl) hepta-1-6-diene-3,5–dione]
KSHV-induced angiogenesis in Matrigel plug (blood vessel formation, hemoglobin content) [2]: dramatically inhibited in a dose dependent manner | Kd [3]: 0.189 µM | SI (CC50 / EC50) [4]: 23.4 | fold by which EC50 (virion release) is lower than IC50 (intracellular viral DNA replication) ([5]; BCBL-1): 29 fold | selectivity index (CC50 / EC50) ([5]; BCBL-1): 165 | EC50 [5]: 0.16 µM | IC50 [6]: 17 µM | cell migration and invasion of KSHV-PDLSC (Transwell) [7]: able to block cell migration and invasion | shift of the Tm of APE1 (DSF) [8]: 1.3 °C | CC50 at 48 h [9]: 75 µM | IC50 [10]: 4.6 µM | KSHV-induced productions of VEGF-A, IL-6 and IL-8 (ELISA) [11]: inhibited by C10 | TPA-induced RTA promoter activity (luciferase) [12]: able to block | auto-regulation of the RTA promoter activity by RTA (luciferase) [12]: able to block auto-regulation of the RTA promoter activity | IC50 [13]: 5.8 µM | paracrine-mediated angiogenesis (tubulogenesis of PDLSCs in conditioned media) [14]: capable of inhibiting paracrine-mediated angiogenesis | EC50 [15]: 3.2 µM | effect on APE1 exonuclease activity ([1]; up to 100 μM of C10): unaffected | TPA-induced AP-1 promoter activity (luciferase) [16]: able to block | CC50 at 48 h [17]: 26.4 µM | levels of secreted angiogenic growth factors (VEGF-A, IL-6) by ELISA [18]: able to reduce the levels of these angiogenic growth factors

CCCCCCCCC/C(=C\C1=C(C)C(=O)C(OC)=C(OC)C1=O)C(=O)O [E3330]
EC50 [5]: 8.5 µM | tumor growth [19]: cause tumor growth inhibition | IC50 [10]: 17.7 µM | cytotoxicity [20]: low cytotoxicity | CC50 at 48 h [21]: 112 µM | tubulogenesis of KSHV-PDLSC (total tube length) ([14]; compound present on Matrigel at different concentrations): showed inhibitory activity at higher doses | paracrine-mediated angiogenesis (tubulogenesis of PDLSCs in conditioned media) [14]: capable of inhibiting paracrine-mediated angiogenesis | retinal angiogenesis [22]: blocks retinal angiogenesis in vitro and in an animal model | levels of secreted angiogenic growth factors (VEGF-A, IL-6) by ELISA [18]: able to reduce the levels of these angiogenic growth factors
